# From patent US20050069877A1, “Protein modification and maintenance molecules” (priority 2001, published 2005)
# What was measured:
# [1] = system: expression of SEQ ID NO:33 in human C3A liver cell line; assay: Microarray expression of SEQ ID NO:33 in compound-treated C3A liver cells; type: cell-based; settings: human C3A liver cell line incubated for varying lengths of time with compound
# Excerpt: The array elements are hybridized with polynucleotides in a biological sample. The polynucleotides in the biological sample are conjugated to a fluorescent label or other molecular tag for ease of detection. After hybridization, nonhybridized nucleotides from the biological sample are removed, and a fluorescence scanner is used to detect hybridization at each array element. […] The degree of complementarity and the relative abundance of each polynucleotide which hybridizes to an element on the microarray may be assessed.
# Total RNA is isolated from tissue samples using the guanidinium thiocyanate method and poly(A)^+ RNA is purified using the oligo-(dT) cellulose method. Each poly(A)^+ RNA sample is reverse transcribed using MMLV reverse-transcriptase, 0.05 pg/μl oligo-(dT) primer (21 mer), 1× first strand buffer, 0.03 units/μl RNase inhibitor, 500 μM dATP, 500 μM dGTP, 500 μM dTTP, 40 μM dCTP, 40 μM dCTP-Cy3 (BDS) or dCTP-Cy5 (Amersham Biosciences). The reverse transcription reaction is performed in a 25 ml volume containing 200 ng poly(A)^+ RNA with GEMBRIGHT kits (Incyte). Specific control poly(A)^+ RNAs are synthesized by in vitro transcription from non-coding yeast genomic DNA. […]
# [2] = greater than progesterone; cited from earlier work
# [3] = intranasal; greater than those produced by hydrocortisone; cited from earlier work
# [4] = system: expression of SEQ ID NO:35 in human peripheral blood mononuclear cells (PBMCs); assay: Microarray expression of SEQ ID NO:35 in prednisone-treated PBMCs; type: cell-based; settings: PBMCs pooled from 6 healthy donors, 5 and 25 μM, 24 hours, compared to untreated controls
# Excerpt: (§1) Full length cDNAs, Expressed Sequence Tags (ESTs), or fragments or oligomers thereof may comprise the elements of the microarray. Fragments or oligomers suitable for hybridization can be selected using software well known in the art such as LASERGENE software (DNASTAR). The array elements are hybridized with polynucleotides in a biological sample. The polynucleotides in the biological sample are conjugated to a fluorescent label or other molecular tag for ease of detection. After hybridization, nonhybridized nucleotides from the biological sample are removed, and a fluorescence scanner is used to detect hybridization at each array element. Alternatively, laser desorbtion and mass spectrometry may be used for detection of hybridization. The degree of complementarity and the relative abundance of each polynucleotide which hybridizes to an element on the microarray may be assessed. In one embodiment, microarray preparation and usage is described in detail below.
# (§2) Total RNA is isolated from tissue samples using the guanidinium thiocyanate method and poly(A)^+ RNA is purified using the oligo-(dT) cellulose method. […]
# (§3) Sequences of the present invention are used to generate array elements. […] Array elements are amplified in thirty cycles of PCR from an initial quantity of 1-2 ng to a final quantity greater than 5 μg. […]
# [5] = system: expression of SEQ ID NO:44 in peripheral blood mononuclear cells; assay: Microarray expression of SEQ ID NO:44 in IL12-treated PBMCs; type: cell-based, human; settings: PBMCs from a pool of healthy donors, 1 ng/ml, 24 hours
# Excerpt: as §1, §2, §3
molecule,measurement,setting,value
6α-methyl-17-hydroxyprogesterone [medroxyprogesterone],expression of SEQ ID NO:33,[1],reduced by at least two fold
same,pharmacological activity relative to progesterone,[2],about 15 times
C[C@H]1C[C@H]2[C@@H]3CCC4=CC(=O)C=C[C@]4(C)[C@@]3(Cl)[C@@H](O)C[C@]2(C)[C@@]1(O)C(=O)CO [beclomethasone],expression of SEQ ID NO:33,[1],reduced by at least two fold
same,anti-inflammatory and vasoconstrictive effects relative to hydrocortisone,[3],5000 times
C[C@]12C=CC(=O)C=C1CC[C@@H]1[C@@H]2C(=O)C[C@@]2(C)[C@H]1CC[C@]2(O)C(=O)CO [prednisone],expression of SEQ ID NO:35,[4],decreased by at least two-fold
"IL12: pleiotropic cytokine produced by macrophages and B lymphocytes (protein, UniProt P29459 23-219; P29460 23-328, looked up) Interleukin-12 subunit alpha: RNLPVATPDPGMFPCLHHSQNLLRAVSNMLQKARQTLEFYPCTSEEIDHEDITKDKTSTVEACLPLELTKNESCLNSRETSFITNGSCLASRKTSFMMALCLSSIYEDLKMYQVEFKTMNAKLLMDPKRQIFLDQNMLAVIDELMQALNFNSETVPQKSSLEEPDFYKTKIKLCILLHAFRIRAVTIDRVMSYLNAS Interleukin-12 subunit beta: IWELKKDVYVVELDWYPDAPGEMVVLTCDTPEEDGITWTLDQSSEVLGSGKTLTIQVKEFGDAGQYTCHKGGEVLSHSLLLLHKKEDGIWSTDILKDQKEPKNKTFLRCEAKNYSGRFTCWWLTTISTDLTFSVKSSRGSSDPQGVTCGAATLSAERVRGDNKEYEYSVECQEDSACPAAEESLPIEVMVDAVHKLKYENYTSSFFIRDIIKPDPPKNLQLKPLKNSRQVEVSWEYPDTWSTPHSYFSLTFCVQVQGKSKREKKDRVFTDKTSATVICRKNASISVRAQDRYYSSSWSEWASVPCS",expression of SEQ ID NO:44,[5],decreased by at least two-fold
